The results in this text go back to patent US20260199350A1, “FLAVONES, QUINOLINONES, QUINAZOLINONES, AND AURONES, AND USES IN CK2-MEDIATED DISEASES” (Salk Institute for Biological Studies, priority 2022, published 2026).

Structures are written as SMILES. “Also recorded” adds a separate entry of the source. Bounds are passed on as bounds.

As a reminder, the IC50 is the midpoint of a concentration-inhibition curve.

The subject of one assay is IL-6 secretion. As to the kind of experiment: IL-6 secretion assay in astrocytes (Promega Lumit IL-6 kit). The class given is cell-based, human. To be noted: astrocytes and microglia; FIG. 2D, FIG. 1C. Put shortly:
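Human astrocytes (HCAs), 20,000 per well, cultured 2-3 days, then stimulated with 10 ng/mL IL1B alongside compound dilution series. IL-6 secreted over 5 h quantified by Lumit IL-6 luminescent immunoassay.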

Another assay relates to NF-κB. Nature of the assay: NF-κB-Luciferase reporter assay in THP-1 NF-κB-Lucia cells. The class given is cell-based, human. As to the method: NF-κB-Luciferase reporter assay. THP-1 NF-κB-Lucia cells were plated at 10,000 cells per well with 10 ng/mL PMA. Three days later, media was removed and replaced with media containing LPS (1 μg/mL) and dilution series of compounds in flat bottom clear 96-well plates for 24 hours. A day later, 20 μL of media was transferred to a 96-well white plate and 50 μL of QuantiLuc Gold reagent (InvivoGen rep-qlcg5) was added per well; plate was mixed in the plate reader and luminescence was read using a Promega GloMax Reader.
(In general: A reporter such as luciferase makes a cellular process visible.)

The test system of assay [1] is IL-6, IL-8, TNF-α, and MCP-1. As to the kind of experiment: Flow cytometry assay of cytokine production in HCA. The class given is cell-based, human. The following applies: 20 μM compound, 10 ng/mL IL1-β. As for the experimental part: Flow cytometry. For each well of HCA in a 6-well plate, 2 mL of fresh media with GolgiPLUG (BD #555029, 1:1000) and GolgiSTOP (BD #554724, 1:1000) with 20 μM compound or vehicle (DMSO) and IL1b 10 ng/mL or DPBS was added. The cells were incubated for 5 h at 37° C. Cells were collected with TrypLE and plated into a 96-well V-bottom plate for staining. The plate was centrifuged for 5 min, 1300 rpm, 4° C. to pellet cells, which were subsequently resuspended in 100 μL DPBS with 1 μL Zombie Violet (Biolegend #4231 13) and 5 μL Human Trustain FC block (Biolegend #422302) per well for 15 min at room temperature in the dark. The plate was centrifuged, supernatant was aspirated, and the cells were washed with 100 μL/well DPBS. Cells were fixed with 100 μL/well of Cytofix/Cytoperm (BD) for 20 min at 4° C. The plate was centrifuged, supernatant was aspirated, and cells were resuspended in 100 μL Permwash (BD) and incubated for 15 min at 4° C. The plate was centrifuged, supernatant was aspirated, and cells were incubated with 100 μL/well of Ab mix or isotype mix in Permwash (see below) for 20 min at 4° C., followed by centrifugation and 2× PermWash washes. The cells were resuspended in 100 μL DPBS and transferred to FACS tubes containing 200 ul of PBS (total volume per tube 300 μL) for analysis on FACS Analyzers (LSRII or Fortessa).
A flow cytometry-based assay was used to assess the anti-inflammatory activity of several natural flavonoid compounds (FIG. 1A) and build corresponding structure-activity relationships. Primary human cerebellar astrocytes (HCA) were co-treated with 20 μM of each compound or vehicle (DMSO), 10 ng/mL IL1-β, and a protein transport inhibitor for 6 hours, and then processed for intracellular staining of pro-inflammatory cytokines IL-6, IL-8, TNF-α, and MCP-1. The presence of a C2-C3 double bond was the predominant determining factor for anti-inflammatory activity. […] There was no cytotoxicity associated with flavone treatment (FIG. 1E).
On the technique in general: A flow cytometer gives signals particle by particle.

A further assay has as its system microglial phagocytosis. As to the kind of experiment: Microglial phagocytosis assay (pHrodo E. coli beads). The following applies: 20 μM, P=0.0015. The class given is cell-based, human. As to the method:
Phagocytosis assay. […] (2-3 biological replicates). Then, 0.5 μL of pHrodo E. Coli-FITC beads (Thermo Fisher, P35366) was added per well with gentle mixing and the cells were incubated for another 4 hours. pHrodo beads only fluoresce when they are internalized in cells. Cells were then collected by scraping, washed with FACS buffer (1×DPBS, 2% BSA, and 0.05 mM EDTA pH 8.0), and counter-stained with Zombie Violet to assess viability. Live cells were analyzed on the FACS Canto instrument for geometric mean fluorescence on the FITC channel. The background FITC fluorescence value (pHrodo beads only) was subtracted from each mean, and fold-change was computed across experimental groups.

The next assay deals with IκBα. As to the kind of experiment: Immunoblot of IκBα and pIκB S32 in inflamed astrocytes. Format: cell-based, human. To be noted: 6 hours. As to the method:
Western blotting. For drug treatment assays, cells were treated with vehicle (DMSO) or 20 μM compound and stimulated with IL1B 10 ng/mL for 1 h, 6 h, or 24 h. Cells were dissociated with 1:1 Accutase:papain for 3 min at rt, pelleted for 5 min at 800 g, and washed twice with cold DPBS. Pellets were lysed with RIPA buffer (Sigma R^0278) supplemented with Halt protease inhibitor cocktail (Thermo Fisher 78445) and clarified by centrifugation (16,000 g, 10 min, 4° C.). Protein concentration was determined by BCA assay (Thermo Fisher). Proteins were denatured in 1×LDS Buffer and 2.5% beta-mercaptoethanol (Sigma) for 10 min at 70° C., separated on Bolt 4-12% Bis-Tris Plus polyacrylamide gels (Thermo Fisher), transferred to PVDF membranes using the iBlot 2 Dry Blotting System, and blocked with 0.1% casein-PBS (Bio-Rad) for 1 h at room temperature. The blots were incubated with primary antibodies overnight at 4° C. in PBS containing 0.1% casein and 0.2% Tween-20. […] The blots were imaged using the Odyssey CLx imaging system and blots were analyzed on the ImageStudio software (LI-COR).
(Immunoblotting shows a protein as a band on a membrane.)

Another assay has as its system phosphorylated NF-κB. As to the kind of experiment: pNF-κB immunoblot in AD patient-derived astrocytes. Format: cell-based, human. The following applies: 5 h treatment.
A further assay has as its system tau phosphorylation. Nature of the assay: Tau phosphorylation in induced neurons (iNs). The class given is cell-based. The following applies: FIG. 14.

In the case of `COc1cc(-c2cc(=O)c3c(O)cc(O)cc3o2)ccc1O` [CHR, Chrysoeriol], the “Anti-inflammatory effects, dose dependence” value in the assay on IL-6 secretion is given as “dose-dependent”. Besides, in the assay with NF-κB (Homo sapiens, THP-1, FIG. 5B, read-out: IC50 in THP-1 monocyte NF-κB-Luciferase reporter cells), the IC50 was under 4 µM. For the same compound, the “SAR summary: activity in NF-κB reporter assay and for CK2 kinase inhibition” value with NF-κB (at 20 μM, FIG. 5A, some values sourced from Baier et al. (2017) and Lolli et al. (2012)) was “active”. In addition, in assay [1], the “IL1-β-induced IL-6, IL-8, TNF-α, MCP-1 cytokine upregulation” value is “active; also recorded: strong suppressive activity”. In addition, in the assay on microglial phagocytosis, the “Microglial phagocytosis of pHrodo E. coli beads” value is reported as “blocked”. Besides, in the assay on IκBα, the IκBα levels result is “dose-dependently boosted” and the “phosphorylated IκB S32” value is given as “remained unchanged”. Besides, the “Elevated phosphorylated NF-κB in AD astrocytes” value in the assay on phosphorylated NF-κB was “reduced”. Further, the Tau phosphorylation result with tau phosphorylation is “reduces”.
